Measured values taken from patent US10266549B2, “ULK1 inhibitors and methods using same” (SALK INSTITUTE FOR BIOLOGICAL STUDIES, priority 2014, dated 2019).

Experiments:
panel of 456 kinases = assay: DiscoveRx KINOMEscan competition binding assay; design: species or system human
Method: FIG. 7E: (top) The kinase selectivity profile for compound 14 was determined using the DiscoveRx KINOMEscan profiling service. Briefly, compound 14 was screened at a 1-μM dose for its ability to impair binding of a panel of 456 kinases to substrate in an in vitro binding assay. Scores for the primary screen hits are reported as a percent of the DMSO control (% Control). Lower scores reflect stronger inhibitory effects of compound 14 on the target kinase. Compound 14 was very selective, only inhibiting 8 kinases >95% and 19 kinases >90% when tested at 10 μM. (bottom) In vitro kinase assays were performed for selected kinases. These assays were performed in the presence of compound 14 in a dose-response manner to identify the IC50 value for compound 14 for each of these individual kinases. […] Of the remaining kinases, those kinases which IC50 value was less than what was identified from ULK2 are highlighted in brown.
Kinase inhibitor specificity profiling assays were first carried out using DiscoveRx KINOMEscan competition binding assay against a panel of 456 kinases (www dot discoverx dot corn) using 1 μM compound 14.
We next examined the specificity of compound 14 using the DiscoveRx KINOMEscan panel of 456 purified human kinases and subsequent competition binding assay.

endogenous ULK1 = endogenous ULK1 activity in MEFs: mobility shift of Beclin1 and Atg13; type: cell-based, mouse; settings: WT MEFs, 10 μM co-treatment, 1 hr
Method: FIG. 7D: WT or Ulk1/Ulk2 double knockout mouse embryonic fibroblasts (MEFs) were treated with fresh media (Dulbecco's modified Eagle medium [DMEM] containing 10% FBS) containing 1-μM INK128, 1-μM AZD8055, or DMSO or with starvation media (EBSS) in the presence or absence of 10 μM compound 14. Cellular lysates were isolated after 1 hr of treatment and immunoblotted with the indicated antibodies. Asterisk denotes non-specific band.
We next examined whether compound 14 inhibits endogenous ULK1 activity. To activate endogenous ULK1, we treated MEFs with either amino acid starvation media (Earle's balanced salt solution [EBSS]) or the mTOR ATP-competitive inhibitors INK128 or AZD8055. In WT MEFs, we observed a mobility shift in endogenous Beclin1 and Atg13 in response to EBSS starvation media or the mTOR catalytic inhibitors, which was abolished in Ulk1/2-deficient MEFs (FIG. 7D). […] In certain embodiments, the mobility shifts observed in endogenous Beclin1 and Atg13 induced by mTOR inhibitors and starvation media reflect phosphorylation of endogenous Beclin1/Atg13 by endogenous ULK1/2 as they only occur in WT but not Ulk1/2-deficient MEFs.

MEFs = assay: AnnexinV apoptosis analysis in nutrient-deprived MEFs; type: cell-based, mouse
Method: A549 cells (ATCC #CCL185) and MEFs were seeded at a concentration of 2.5×10^5 cells/mL (i.e., 750,000 cells per 6 cm dish), grown overnight (18 hrs) and treated as indicted in the figure legends. Unless otherwise indicated, “starvation” is EBSS and “control” is DMEM with full serum for indicated timepoints. Samples for western blot were washed once in 1× ice cold PBS and lysed in boiling SDS lysis buffer (10 mM Tris […], 100 mM NaCl, 1% SDS). After trituration, lysates were equilibrated for protein levels using the BCA method (Pierce) and resolved on 8 to 15% SDS-PAGE gels, depending on the size of the protein. PVDF membranes were probed with indicated antibodies overnight according to the manufacturers instructions.
For flow cytometry analysis, cells were collected at the appropriate time point, washed once in PBS, trypsinized and pelleted. For Annexin V staining, cells were washed in 1× Annexin V buffer and treated as described by the Annexin V staining protocol (BD Pharmingen, San Diego, Calif.). […] Stained cells were analyzed using a FACScan flow cytometer (Becton Dickinson, San Jose, Calif.). Flow cytometry data was analyzed using FlowJo 8.6 software (Tree Star Inc., Ashland, Oreg.). […]

A549 lung cancer cells = assay: Cyto-ID autophagy detection in A549 cells; type: cell-based; settings: A549, 5 μM for 2 hr then 4 μM AZD8055 for 24 hr
Method: FIG. 9E is an immunoflourescence imaging of A549 cells treated in the presence or absence of 5 μM compound 14 for 2 hr followed by 4 μM of the mTOR catalytic inhibitor AZD8055 for 24 hr. Autophagic vacuoles were detected using the Cyto-ID autophagy detection kit and are visualized in green, while cell nuclei were counterstained by DAPI and are visualized in blue.
To test the ability of compound 14 to block autophagy and cell survival, initial studies were performed in A549 lung cancer cells, which are highly sensitive to mTOR inhibition. […] Next, we genetically assessed the requirement for ULK1 versus other kinases inhibited by compound 14 to induce autophagy after pharmacological mTOR inhibition. A robust high-throughput microscopy method for quantifying GFP-LC3 puncta was established using a PC3 prostate-cancer cell line stably expressing a GFP-LC3 construct. Using this assay, we performed a focused RNAi analysis of the top 20 kinases identified in the DiscovRx screen as best binding to compound 14. […] Strikingly, of the 18 kinases tested, only one kinase siRNA, ULK1, nearly fully abolished the LC3 puncta induced by the mTOR inhibitors (FIG. 9D).

[1] = panel of 456 kinases, tested at 10 μM as printed (method says 1 μM)

## CNC(=O)c1ccccc1Nc1nc(Nc2cc(OC)c(OC)c(OC)c2)ncc1Br [compound 14, 2-(5-bromo-2-(3,4,5-trimethoxyphenylamino)pyrimidin-4-ylamino)-N-methylbenzamide]
Panel of 456 kinases; (number of non-mutant kinases with % Ctrl <35)/(number of non-mutant kinases tested)
  S(35) selectivity index: 0.123
Panel of 456 kinases; [1]
  number of kinases inhibited >90%: 19
  number of kinases inhibited >95%: 8
Endogenous ULK1
  EBSS and mTOR-inhibitor induced mobility shift in Beclin1 and Atg13: inhibited
MEFs; MEFs, 24 h after amino-acid deprivation
  AnnexinV positive cells: 50%
MEFs; glucose-deprived MEFs
  cell death: promoted cell death
A549 lung cancer cells
  AZD8055-induced autophagy (Cyto-ID autophagy dye accumulation): strongly suppressed
